The record followed here is patent US7897602B2, “Indolinone compounds as kinase inhibitors” (Development Center for Biotechnology, priority 2009, dated 2011).

What all share (assay type): biochemical
In one test the target is T1, Aurora B kinase (Homo sapiens, UniProt Q96GD4).
T1 construct: purchased Cell signaling
Kind of test: Aurora B kinase assay ([γ-33P]ATP, CHOCKtide substrate). The following applies: for inhibition at 1 µM: 1.0 μM test compound. The procedure: (§1) Inhibition of Aurora Kinase by the compounds disclosed herein was determined by incubating Aurora kinase, substrate, and a test compound together for a period of time followed by quantifying the resultant phosphorylated product. Specifically, in a well of a 96-well round bottom plate, 25 μL of a reaction mixture containing (1) a test compound disclosed herein (diluted from 9 μM to the desired final concentration), [γ-33P]ATP/ATP mix (10 μM), CHOCKtide (1 μg, Genesis Biotech Inc.), and Aurora-A (1 ng, purchased from Upstate); or (2) a test compound disclosed herein (diluted from 9 μM to the desired final concentration), [γ-33P]ATP/ATP mix (40 μM), CHOCKtide (1 μg, Genesis Biotech Inc.), and Aurora-B (2.5 ng, purchased from Cell signaling); was prepared and incubated at 33° C. for 30 minutes. The reaction was then stopped by adding 5 μL of 3% phosphoric acid. The resultant solution (30 μL) was later harvested by a UniFilter Plate GF/B (PerkinElmer) followed by adding 30 μL of the scintillation cocktail (MicroScint 20, PerkinElmer) to the well. The radioactivity retained on the filter membrane was measured by a luminescence counter (PerkinElmer). IC50 value is defined as the concentration of the test compound which achieves a half-maximal inhibition of the kinase activity.

In the next test the target is T2, c-Met kinase (Homo sapiens, UniProt P08581).
T2 construct: recombinant N-terminal 6×His-tagged c-Met kinase domain construct expressed from baculovirus; 6xHis (N); made in house
T2 sequence (P08581 1078-1345 limits assumed): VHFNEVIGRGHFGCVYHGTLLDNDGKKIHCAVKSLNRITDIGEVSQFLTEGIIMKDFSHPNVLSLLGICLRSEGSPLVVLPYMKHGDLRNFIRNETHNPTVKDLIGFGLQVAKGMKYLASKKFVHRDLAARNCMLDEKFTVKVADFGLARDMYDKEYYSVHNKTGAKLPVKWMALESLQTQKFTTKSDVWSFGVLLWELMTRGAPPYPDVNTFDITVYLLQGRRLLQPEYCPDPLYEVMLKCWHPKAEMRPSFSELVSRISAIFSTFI
In words: c-Met kinase assay (33P incorporation into Poly(Glu-Tyr)). The conditions noted are these: 500 nM test compound. The procedure:
Inhibition of c-Met kinase activity by compounds disclosed herein was quantified by measuring the amount of [^33P] incorporated into the substrate in the presence of a test compound. Briefly, a reaction mixture of 25 μL final volume containing 5 ng of c-Met kinase (obtained by purifying recombinant N-terminal 6×His-tagged c-Met kinase domain construct expressed from baculovirus), 1 μg of the substrate (Poly (Glu-Tyr, 4:1, Sigma)), kinase reaction buffer (20 mM MOPS pH 7.0, 1 mM EDTA, 5% glycerol, 0.01% Brij-35, 0.1% β-mercaptoethanol, 1 mg/mL BSA, 100 μM ATP, 0.1 μCi per well [^33P]-γ-ATP (2,500-3,000 Ci/mmol)), and a test compound (500 nM, diluted with 4% DMSO) or DMSO (as the control) was incubated at 30° C. for 30 minutes. The reaction was stopped by adding 5 μL of 3% phosphoric acid solution. The resultant reaction solution was then harvested onto a filter plate (UniFilter-96 GF/B, PerkinElmer), washed 20 times for 5 min with d.d. H2O, and followed by the addition of 30 μL of MicroScint™-20 Cocktail (PerkinElmer). The plate was then sealed and counted using a TopCount scintillation detector (PerkinElmer). The percentage of inhibition rate of the test compound was calculated by dividing the retained radioactivity of the test sample with the retained radioactivity of the control sample and shown in Table 3.

A further test concerns the target T3, Aurora A kinase (Homo sapiens, UniProt O14965).
T3 construct: purchased Upstate
T3 sequence (O14965 1-403): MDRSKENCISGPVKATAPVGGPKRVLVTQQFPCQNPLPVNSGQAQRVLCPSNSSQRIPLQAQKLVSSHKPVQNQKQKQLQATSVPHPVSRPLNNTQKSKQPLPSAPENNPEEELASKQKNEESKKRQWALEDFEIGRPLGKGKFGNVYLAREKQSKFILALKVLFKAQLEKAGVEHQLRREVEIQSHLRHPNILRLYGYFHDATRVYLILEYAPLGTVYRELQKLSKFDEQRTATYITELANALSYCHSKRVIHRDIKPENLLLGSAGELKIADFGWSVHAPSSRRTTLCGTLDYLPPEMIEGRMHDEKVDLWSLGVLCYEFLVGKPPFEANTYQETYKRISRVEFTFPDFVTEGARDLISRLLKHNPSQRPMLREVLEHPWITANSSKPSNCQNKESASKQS
Kind of test: Aurora A kinase assay ([γ-33P]ATP, CHOCKtide substrate). The conditions noted are these: for inhibition at 1 µM: 1.0 μM test compound. On the procedure:
as §1

Each structure is given as a SMILES string.

The inhibition is the drop in the measured response relative to a control, in per cent. A higher inhibition goes with a response far below the control. As usually defined, the IC50 is the concentration at which inhibition is half-maximal. Read a high IC50 as a need for much substance.

T1 sequence (Q96GD4 whole entry): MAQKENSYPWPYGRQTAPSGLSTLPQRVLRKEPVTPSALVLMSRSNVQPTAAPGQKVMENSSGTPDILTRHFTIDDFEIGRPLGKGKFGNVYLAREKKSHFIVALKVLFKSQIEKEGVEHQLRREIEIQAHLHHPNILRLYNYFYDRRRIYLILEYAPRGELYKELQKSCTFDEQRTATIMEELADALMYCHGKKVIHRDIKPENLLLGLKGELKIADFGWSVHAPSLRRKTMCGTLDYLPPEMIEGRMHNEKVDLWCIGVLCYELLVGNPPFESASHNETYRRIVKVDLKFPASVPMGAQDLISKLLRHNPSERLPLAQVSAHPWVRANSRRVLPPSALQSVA

As to `Nc1ccccc1NC(=O)CCc1c(/C=C2\C(=O)Nc3ccc(NS(=O)(=O)c4ccccc4)cc32)[nH]c2c1C(=O)CCC2` [DCB-70186, (Z)-N-(2-aminophenyl)-3-(4-oxo-2-((2-oxo-5-(phenylsulfonamido)indolin-3-ylidene)methyl)-4,5,6,7-tetrahydro-1H-indol-3-yl)propanamide], the inhibition at 1 µM against Aurora B kinase was determined as 47.4%; on Aurora A kinase, 66.1%. The compound further yielded an inhibition at 0.5 µM against c-Met kinase of 9.6%.
`CC(=O)c1c(C)[nH]c(/C=C2\C(=O)Nc3ccc(F)cc32)c1CCC(=O)O` [DCB-70187, (Z)-3-(4-acetyl-2-((5-fluoro-2-oxoindolin-3-ylidene)methyl)-5-methyl-1H-pyrrol-3-yl)propanoic acid]: the values for the inhibition at 1 µM at Aurora B kinase and on Aurora A kinase were 17.5% and 62.8%, respectively. Further, the inhibition at 0.5 µM on c-Met kinase was determined as 8.8%.
For the compound `CC(=O)c1c(C)[nH]c(/C=C2\C(=O)Nc3ccc(S(=O)(=O)N4CCc5ccccc54)cc32)c1CCC(=O)O` [DCB-70188, (Z)-3-(4-acetyl-2-((5-(indolin-1-ylsulfonyl)-2-oxoindolin-3-ylidene)methyl)-5-methyl-1H-pyrrol-3-yl)propanoic acid], on Aurora B kinase, the IC50 worked out at 759 nM and the inhibition at 1 µM is 53.2%. The compound also yielded an inhibition at 0.5 µM against c-Met kinase of 51.1%. At Aurora A kinase, this compound displayed an IC50 of 31.7 nM and an inhibition at 1 µM of 95.5%.
On to `CCOC(=O)CCc1c(/C=C2\C(=O)Nc3ccc(NS(=O)(=O)c4cc(F)cc(F)c4)cc32)[nH]c2c1C(=O)CCC2` [DCB-70189, (Z)-ethyl 3-(2-((5-(3,5-difluorophenylsulfonamido)-2-oxoindolin-3-ylidene)methyl)-4-oxo-4,5,6,7-tetrahydro-1H-indol-3-yl)propanoate], for which, on Aurora B kinase, the midpoint of inhibition, the IC50, lay at 177 nM and the inhibition at 1 µM amounted to 84%. In addition, 0.5 µM produced 14% inhibition against c-Met kinase. On Aurora A kinase, this compound came in with an IC50 of 77.9 nM and an inhibition at 1 µM of 91.4%.
For `O=C(O)CCc1c(/C=C2\C(=O)Nc3ccc(NS(=O)(=O)c4cc(F)cc(F)c4)cc32)[nH]c2c1C(=O)CCC2` [DCB-70190, (Z)-3-(2-((5-(3,5-difluorophenylsulfonamido)-2-oxoindolin-3-ylidene)methyl)-4-oxo-4,5,6,7-tetrahydro-1H-indol-3-yl)propanoic acid] the same measures were 246 nM, 80%, 10%, 31.5 nM and 97%.
On to `CCOC(=O)CCc1c(/C=C2\C(=O)Nc3ccc(NS(=O)(=O)c4ccc5ccccc5c4)cc32)[nH]c2c1C(=O)CCC2` [DCB-70191, (Z)-ethyl 3-(2-((5-(naphthalene-2-sulfonamido)-2-oxoindolin-3-ylidene)methyl)-4-oxo-4,5,6,7-tetrahydro-1H-indol-3-yl)propanoate], for which the inhibition at 1 µM was determined as 21.2% against Aurora B kinase and 20.4% against Aurora A kinase. Besides, the inhibition at 0.5 µM against c-Met kinase was found to be 19%.
For `O=C(O)CCc1c(/C=C2\C(=O)Nc3ccc(NS(=O)(=O)c4ccc5ccccc5c4)cc32)[nH]c2c1C(=O)CCC2` [DCB-70192, (Z)-3-(2-((5-(naphthalene-2-sulfonamido)-2-oxoindolin-3-ylidene)methyl)-4-oxo-4,5,6,7-tetrahydro-1H-indol-3-yl)propanoic acid] the same measures were 21%, 40.6% and 9.9%.
`CCOC(=O)CCc1c(/C=C2\C(=O)Nc3ccc(NS(=O)(=O)c4cc(Cl)cc(Cl)c4)cc32)[nH]c2c1C(=O)CCC2` [DCB-70193, (Z)-ethyl 3-(2-((5-(3,5-dichlorophenylsulfonamido)-2-oxoindolin-3-ylidene)methyl)-4-oxo-4,5,6,7-tetrahydro-1H-indol-3-yl)propanoate]: the values for the inhibition at 1 µM at Aurora B kinase and against Aurora A kinase were 36.7% and 74.3%, respectively. The compound further registered an inhibition at 0.5 µM on c-Met kinase of 11.2%.
Regarding `O=C(O)CCc1c(/C=C2\C(=O)Nc3ccc(NS(=O)(=O)c4cc(Cl)cc(Cl)c4)cc32)[nH]c2c1C(=O)CCC2` [DCB-70194, (Z)-3-(2-((5-(3,5-dichlorophenylsulfonamido)-2-oxoindolin-3-ylidene)methyl)-4-oxo-4,5,6,7-tetrahydro-1H-indol-3-yl)propanoic acid], at Aurora B kinase, at 1 µM the inhibition was 41.7%. The inhibition at 0.5 µM against c-Met kinase was determined as 12.9%. In addition, on Aurora A kinase, the half-inhibitory concentration (IC50) was 151 nM and the inhibition at 1 µM was found to be 85.3%.
With `CCOC(=O)CCc1c(/C=C2\C(=O)Nc3ccc(NS(=O)(=O)c4cccc(OC)c4)cc32)[nH]c2c1C(=O)CCC2` [DCB-70195, (Z)-ethyl 3-(2-((5-(3-methoxyphenylsulfonamido)-2-oxoindolin-3-ylidene)methyl)-4-oxo-4,5,6,7-tetrahydro-1H-indol-3-yl)propanoate], the inhibition at 1 µM was found to be 47.5% against Aurora B kinase and 73.1% on Aurora A kinase. On c-Met kinase, this compound came in with an inhibition at 0.5 µM of 15.3%.
On Aurora B kinase, `COc1cccc(S(=O)(=O)Nc2ccc3c(c2)/C(=C/c2[nH]c4c(c2CCC(=O)O)C(=O)CCC4)C(=O)N3)c1` [DCB-70196, (Z)-3-(2-((5-(3-methoxyphenylsulfonamido)-2-oxoindolin-3-ylidene)methyl)-4-oxo-4,5,6,7-tetrahydro-1H-indol-3-yl)propanoic acid] displayed an IC50 of 673 nM and an inhibition at 1 µM of 55.8%. 0.5 µM produced 13.8% inhibition against c-Met kinase. At Aurora A kinase, this compound yielded an IC50 of 61.4 nM and an inhibition at 1 µM of 91.8%.
Consider `CCOC(=O)CCc1c(/C=C2\C(=O)Nc3ccc(NS(=O)(=O)Cc4ccccc4)cc32)[nH]c2c1C(=O)CCC2` [DCB-70197, (Z)-ethyl 3-(4-oxo-2-((2-oxo-5-(phenylmethylsulfonamido)indolin-3-ylidene)methyl)-4,5,6,7-tetrahydro-1H-indol-3-yl)propanoate], for which the inhibition at 1 µM on Aurora B kinase worked out at 39.9%; against Aurora A kinase, 48.7%. For the same compound, the inhibition at 0.5 µM at c-Met kinase was 21.1%.
Turning to `O=C(O)CCc1c(/C=C2\C(=O)Nc3ccc(NS(=O)(=O)Cc4ccccc4)cc32)[nH]c2c1C(=O)CCC2` [DCB-70198, (Z)-3-(4-oxo-2-((2-oxo-5-(phenylmethylsulfonamido)indolin-3-ylidene)methyl)-4,5,6,7-tetrahydro-1H-indol-3-yl)propanoic acid], the IC50 was found to be 402 nM against Aurora B kinase and 62.8 nM against Aurora A kinase. For the same compound, the inhibition at 1 µM was determined as 69.8% at Aurora B kinase and 96.1% on Aurora A kinase. Moreover, at 0.5 µM the inhibition against c-Met kinase was 20.2%.
On Aurora B kinase, `CC(=O)c1c(C)[nH]c(/C=C2\C(=O)Nc3ccc(NS(=O)(=O)c4ccccc4)cc32)c1CCC(=O)O` [DCB-70200, (Z)-3-(4-acetyl-5-methyl-2-((2-oxo-5-(phenylsulfonamido)indolin-3-ylidene)methyl)-1H-pyrrol-3-yl)propanoic acid] returned an IC50 of 870 nM and an inhibition at 1 µM of 57.3%. In addition, the inhibition at 0.5 µM against c-Met kinase stood at 15.2%. On Aurora A kinase, the IC50 came out at 60.6 nM and the inhibition at 1 µM came to 93.1%.
Turning to `CCOC(=O)CCc1c(/C=C2\C(=O)Nc3ccc(NS(=O)(=O)c4ccccc4)cc32)[nH]c(C)c1C(C)=O` [DCB-70201, (Z)-ethyl 3-(4-acetyl-5-methyl-2-((2-oxo-5-(phenylsulfonamido)indolin-3-ylidene)methyl)-1H-pyrrol-3-yl)propanoate], the inhibition at 1 µM is 36.6% on Aurora B kinase and 48.2% at Aurora A kinase. On c-Met kinase, this compound registered an inhibition at 0.5 µM of 18.8%.
